Assay results from US20060069132A1, “Azolecarboxamide herbicides” (priority 2004, published 2006).

Experiments:
[1] = system: Russian thistle; test: Test E pre-/postemergence herbicide test; assay type: in vivo, Salsola kali
Text: (§1) Seeds of plant species selected from bipinnate beggarticks (Bidens bipinnata L.), hairy beggarticks (Bidens radiata Thuill.), bermudagrass (Cynodon dactylon (L.) Pers.), Surinam grass (Urochloa decumbens (Staph) R. D. Webster, previously named Brachiaria decumbens Stapf), large crabgrass (Digitaria sanguinalis (L.) Scop.), green foxtail (Setaria viridis (L.) P. Beauv.), goosegrass (Eleusine indica (L.) Gaertn.), johnsongrass (Sorghum halepense (L.) Pers.), kochia (Kochia scoparia (L.) Schrad.), pitted morningglory (Ipomoea lacunosa L.), purple nutsedge (Cyperus rotundus L.), common ragweed (Ambrosia elatior L.), mustard (Brassica nigra (L.) W. D. J. Koch), guineagrass (Panicum maximum Jacq.), dallisgrass (Paspalum dilatatum Poir.), barnyardgrass (Echinochloa crus-galli (L). P. Beauv.), southern sandbur (Cenchrus echinatus L.), common sowthistle (Sonchus oleraceous L.), prickly sida (Sida spinosa L.), Italian ryegrass (Lolium multiflorum Lam.), common purslane (Portulaca oleracea L.), broadleaf signalgrass (Brachiaria platyphylla (Griseb.) Nash), common groundsel (Senecio vulgaris L.), common chickweed (Stellaria media (L.) Vill/Cyr.), tropical spiderwort (Commelina benghalensis L.), annual bluegrass (Poa annua L.), downy bromegrass (Bromus tectorum L.), itchgrass (Rottboellia cochinchinensis (L.) L.f.), quackgrass (Elytrigia repens (L.) Nevski), Canada horseweed (Erigeron Canadensis L.), field bindweed (Convolvulus arvensis L.), spotted spurge (Euphorbia maculata L.), common mallow (Malva sylvestris (=s silvestris) L.), and Russian thistle (Salsola kali L. ssp. Ruthenica (Iljin) Soo) were planted and treated preemergence with test chemicals formulated in a non-phytotoxic solvent mixture which included a surfactant.
(§2) At the same time, plants selected from these weed species were treated with postemergence applications of some of the test chemicals formulated in the same manner. Plants ranged in height from 2 to 18 cm (1- to 4-leaf stage) for postemergence treatments. Treated plants and controls were maintained in a greenhouse for 12 to 14 days, after which time all species were compared to controls and visually evaluated. Plant response ratings, summarized in Table E, are based on a scale of 0 to 100 where 0 is no effect and 100 is complete control. A dash (-) response means no test result.

[2] = system: itchgrass; test: Test E pre-/postemergence herbicide test; assay type: in vivo, Rottboellia cochinchinensis
How it was run: (§3)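 In this greenhouse assay, compounds in a solvent vehicle containing surfactant were applied pre- and postemergence, the latter to plants 2 to 18 cm high. Control was judged by eye after 12 to 14 days on a 0 to 100 scale.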

[3] = system: dallisgrass; test: Test E pre-/postemergence herbicide test; assay type: in vivo, Paspalum dilatatum
How it was run: as §3

[4] = system: Surinam grass; test: Test E pre-/postemergence herbicide test; assay type: in vivo, Urochloa decumbens
How it was run: as §3

[5] = system: purple nutsedge; test: Test E pre-/postemergence herbicide test; assay type: in vivo, Cyperus rotundus
How it was run: as §3

[6] = system: annual bluegrass; test: Test E pre-/postemergence herbicide test; assay type: in vivo, Poa annua
How it was run: as §3

[7] = system: tropical spiderwort; test: Test E pre-/postemergence herbicide test; assay type: in vivo, Commelina benghalensis
How it was run: as §3

[8] = system: kochia; test: Test E pre-/postemergence herbicide test; assay type: in vivo, Kochia scoparia
How it was run: as §3

[9] = system: downy bromegrass; test: Test C postemergence herbicide test; assay type: in vivo, Bromus tectorum
How it was run: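 Plants were grown to the 1- to 4-leaf stage (2–18 cm) and then treated postemergence, or grown to the 2-leaf stage for the flooded paddy test. They were held in a greenhouse for 12 to 14 days and then scored by eye against controls, where 0 is no effect and 100 is complete control.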

[10] = system: hairy beggarticks; test: Test E pre-/postemergence herbicide test; assay type: in vivo, Bidens radiata; conditions: Preemergence
Text: as §1, §2

[11] = system: bipinnate beggarticks; test: Test E pre-/postemergence herbicide test; assay type: in vivo, Bidens bipinnata; conditions: Preemergence
Text: as §1, §2

[12] = Postemergence, 250 g ai/ha, scale 0 to 100
[13] = Preemergence, 62 g ai/ha, scale 0 to 100
[14] = Preemergence, 125 g ai/ha, scale 0 to 100
[15] = Preemergence, 500 g ai/ha, scale 0 (no effect) to 100 (complete control)
[16] = Postemergence, 500 g ai/ha, scale 0 to 100
[17] = Preemergence, 250 g ai/ha, scale 0 (no effect) to 100 (complete control)
[18] = postemergence, 125 g ai/ha, scale 0 to 100
[19] = postemergence, 62 g ai/ha, scale 0 to 100
[20] = 250 g ai/ha, scale 0 (no effect) to 100 (complete control)

SMILES: CCn1nc(C(C)(C)C)cc1C(=O)Nc1cc(C(=O)N(C)C)ccn1 [Compound 156, 2-[[[3-(1,1-dimethylethyl)-1-ethyl-1H-pyrazol-5-yl]carbonyl]amino]-N,N-dimethyl-4-pyridinecarboxamide]
- Plant response rating, Thistle [1, 12]: 80
- Plant response rating, Thistle [1, 13]: 80
- Plant response rating, Thistle [1, 14]: 100
- Plant response rating, Thistle [1, 15]: 100
- Plant response rating, Itchgrass [2, 16]: 98
- Plant response rating, Itchgrass [2, 12]: 95
- Plant response rating, Itchgrass [2, 13]: 100
- Plant response rating, Itchgrass [2, 14]: 100
- Plant response rating, Itchgrass [2, 17]: 100
- Plant response rating, Itchgrass [2, 15]: 100
- Plant response rating, Itchgrass [2, 18]: 95
- Plant response rating, Itchgrass [2, 19]: 80
- Plant response rating, Dallisgrass [3, 16]: 90
- Plant response rating, Dallisgrass [3, 12]: 90
- Plant response rating, Dallisgrass [3, 13]: 90
- Plant response rating, Dallisgrass [3, 14]: 95
- Plant response rating, Dallisgrass [3, 17]: 100
- Plant response rating, Dallisgrass [3, 15]: 100
- Plant response rating, Dallisgrass [3, 18]: 85
- Plant response rating, Dallisgrass [3, 19]: 75
- Plant response rating, Surinam Grass [4, 16]: 100
- Plant response rating, Surinam Grass [4, 12]: 98
- Plant response rating, Surinam Grass [4, 13]: 50
- Plant response rating, Surinam Grass [4, 14]: 75
- Plant response rating, Surinam Grass [4, 15]: 95
- Plant response rating, Surinam Grass [4, 18]: 95
- Plant response rating, Surinam Grass [4, 19]: 80
- Plant response rating, Nutsedge, Purple [5, 12]: 90
- Plant response rating, Nutsedge, Purple [5, 15]: 95
- Plant response rating, Nutsedge, Purple [5, 18]: 75
- Plant response rating, Bluegrass [6, 16]: 98
- Plant response rating, Bluegrass [6, 12]: 98
- Plant response rating, Bluegrass [6, 13]: 95
- Plant response rating, Bluegrass [6, 14]: 95
- Plant response rating, Bluegrass [6, 17]: 100
- Plant response rating, Bluegrass [6, 15]: 100
- Plant response rating, Bluegrass [6, 18]: 95
- Plant response rating, Bluegrass [6, 19]: 90
- Plant response rating, Spiderwort [7, 16]: 65
- Plant response rating, Spiderwort [7, 12]: 50
- Plant response rating, Spiderwort [7, 13]: 30
- Plant response rating, Spiderwort [7, 14]: 50
- Plant response rating, Spiderwort [7, 17]: 50
- Plant response rating, Spiderwort [7, 15]: 80
- Plant response rating, Spiderwort [7, 18]: 30
- Plant response rating, Spiderwort [7, 19]: 20
- Plant response rating, Kochia [8, 16]: 100
- Plant response rating, Kochia [8, 12]: 100
- Plant response rating, Kochia [8, 13]: 100
- Plant response rating, Kochia [8, 14]: 100
- Plant response rating, Kochia [8, 17]: 100
- Plant response rating, Kochia [8, 15]: 100
- Plant response rating, Kochia [8, 18]: 100

SMILES: CCN1N=C(C(C)(C)C)CC1C(=O)Nc1cc(C(=O)N(C)C)ccc1F (centres unmarked) [Compound 268, N-[5-[(dimethylamino)carbonyl]-2-fluorophenyl]-3-(1,1-dimethylethyl)-1-ethyl-4,5-dihydro-1H-pyrazole-5-carboxamide]
- Plant response rating, Thistle [1, 14]: 60
- Plant response rating, Thistle [1, 15]: 100
- Plant response rating, Itchgrass [2, 13]: 50
- Plant response rating, Itchgrass [2, 14]: 60
- Plant response rating, Itchgrass [2, 17]: 75
- Plant response rating, Itchgrass [2, 15]: 95
- Plant response rating, Dallisgrass [3, 13]: 70
- Plant response rating, Dallisgrass [3, 14]: 80
- Plant response rating, Dallisgrass [3, 17]: 85
- Plant response rating, Dallisgrass [3, 15]: 85
- Plant response rating, Surinam Grass [4, 14]: 90
- Plant response rating, Surinam Grass [4, 15]: 100
- Plant response rating, Nutsedge, Purple [5, 13]: 50
- Plant response rating, Nutsedge, Purple [5, 14]: 70
- Plant response rating, Nutsedge, Purple [5, 17]: 85
- Plant response rating, Nutsedge, Purple [5, 15]: 85
- Plant response rating, Bromegrass, Downy ([9]; Postemergence, 250 g ai/ha, scale 0 to 100, 0 no effect, 100 complete control): 40
- Plant response rating, Bromegrass, Downy [9, 18]: 30
- Plant response rating, Bromegrass, Downy ([9]; postemergence, 31 g ai/ha, scale 0 to 100): 0
- Plant response rating, Bromegrass, Downy [9, 19]: 10
- Plant response rating, Beggarticks, Hairy ([10]; 62 g ai/ha, scale 0 to 100): 40
- Plant response rating, Beggarticks, Hairy ([10]; 125 g ai/ha, scale 0 to 100): 95
- Plant response rating, Beggarticks, Hairy [10, 20]: 100
- Plant response rating, Beggarticks, Hairy ([10]; 500 g ai/ha, scale 0 (no effect) to 100 (complete control)): 100
- Plant response rating, Bluegrass [6, 13]: 80
- Plant response rating, Bluegrass [6, 14]: 95
- Plant response rating, Bluegrass [6, 17]: 95
- Plant response rating, Bluegrass [6, 15]: 95
- Plant response rating, Spiderwort [7, 14]: 70
- Plant response rating, Spiderwort [7, 17]: 85
- Plant response rating, Spiderwort [7, 15]: 90

SMILES: CCc1nn(C(C)C)nc1C(=O)Nc1cccc(C(=O)N(C)CC)c1 [Compound 386]
- Plant response rating, Beggarticks, Bip. [11, 20]: 40
- Plant response rating, Itchgrass [2, 14]: 70
- Plant response rating, Itchgrass [2, 17]: 70
- Plant response rating, Dallisgrass [3, 14]: 70
- Plant response rating, Dallisgrass [3, 17]: 75
- Plant response rating, Surinam Grass [4, 14]: 80
- Plant response rating, Bluegrass [6, 14]: 60
- Plant response rating, Bluegrass [6, 17]: 95
- Plant response rating, Spiderwort [7, 14]: 10
- Plant response rating, Spiderwort [7, 17]: 70

SMILES: CCc1nn(C(C)C)nc1C(=O)Nc1cccc(C(=O)N2CCCCC2)c1 [Compound 385]
- Plant response rating, Beggarticks, Bip. ([11]; 62 g ai/ha, scale 0 to 100): 0
- Plant response rating, Beggarticks, Bip. ([11]; 125 g ai/ha, scale 0 to 100): 30
- Plant response rating, Beggarticks, Bip. [11, 20]: 30
- Plant response rating, Thistle [1, 14]: 50
- Plant response rating, Itchgrass [2, 13]: 20
- Plant response rating, Itchgrass [2, 14]: 20
- Plant response rating, Itchgrass [2, 17]: 20
- Plant response rating, Dallisgrass [3, 13]: 10
- Plant response rating, Dallisgrass [3, 14]: 30
- Plant response rating, Dallisgrass [3, 17]: 50
- Plant response rating, Surinam Grass [4, 14]: 20
- Plant response rating, Bluegrass [6, 13]: 0
- Plant response rating, Bluegrass [6, 14]: 10
- Plant response rating, Bluegrass [6, 17]: 30
- Plant response rating, Spiderwort [7, 14]: 0
- Plant response rating, Spiderwort [7, 17]: 0
